The text below walks through data of patent publication US20170334899A1, “AMINO-SUBSTITUTED ISOTHIAZOLES” (Bayer Pharma Aktiengesellschaft, priority 2014, published 2017).

Holding throughout (type): cell-based
In one test the test system is HeLa. Kind of test: Proliferation assay (crystal violet), HeLa. Particulars: Homo sapiens, HeLa, 96 h, HeLa cells; 4 days incubation; crystal violet staining; read-out: IC50 inhibition of proliferation, HeLa. As for the experimental part: Cultivated tumor cells (cells were ordered from ATCC, except HeLa-MaTu and HeLa-MaTu-ADR, which were ordered from EPO-GmbH, Berlin) were plated at a density of 1000 to 5000 cells/well, depending on the growth rate of the respective cell line, in a 96-well multititer plate in 200 μL of their respective growth medium supplemented 10% fetal calf serum. After 24 hours, the cells of one plate (zero-point plate) were stained with crystal violet (see below), while the medium of the other plates was replaced by fresh culture medium (200 μl), to which the test substances were added in various concentrations (0 μM, as well as in the range of 0.001-10 μM; the final concentration of the solvent dimethyl sulfoxide was 0.5%). The cells were incubated for 4 days in the presence of test substances. Cell proliferation was determined by staining the cells with crystal violet: the cells were fixed by adding 20 μl/measuring point of an 11% glutaric aldehyde solution for 15 minutes at room temperature. After three washing cycles of the fixed cells with water, the plates were dried at room temperature. The cells were stained by adding 100 μl/measuring point of a 0.1% crystal violet solution (pH 3.0). After three washing cycles of the stained cells with water, the plates were dried at room temperature. The dye was dissolved by adding 100 μl/measuring point of a 10% acetic acid solution. Absorbtion was determined by photometry at a wavelength of 595 nm. The change of cell number, in percent, was calculated by normalization of the measured values to the aborbtion values of the zero-point plate (=0%) and the absorbtion of the untreated (0 μm) cells (=100%). The IC50 values were determined by means of a 4 parameter fit.

The test system of test [1] is human cervical tumor cell line HeLa (ATCC CCL-2). Kind of test: SAC-Formation - Nocodazole-Induced Assay. The settings on record: Homo sapiens, HeLa, 24 h, HeLa cells, nocodazole 0.1 μg/ml together with test compound, decrease of mitotic cells (phospho-histone H3 Ser10). The source says: (§1) The spindle assembly checkpoint assures the proper segregation of chromosomes during mitosis. Upon entry into mitosis, chromosomes begin to condensate which is accompanied by the phosphorylation of histone H3 on serine 10. Dephosphorylation of histone H3 on serine 10 begins in anaphase and ends at early telophase. Accordingly, phosphorylation of histone H3 on serine 10 can be utilized as a marker of cells in mitosis. Nocodazole is a microtubule destabilizing substance. Paclitaxel is a microtubule stabilizing compound. Thus, nocodazole as well as paclitaxel interfere with microtubule dynamics and mobilize the spindle assembly checkpoint. […] The mitotic breakthrough can be detected by the decrease of cells with phosphorylation of histone H3 on serine 10. This decline is used as a marker to determine the capability of compounds of the present invention to induce a mitotic breakthrough. The typical morphological alteration of nuclei with a prematurely completed mitosis after SAC-inhibition can be monitored via image analysis routines supporting those findings.
(§2) The nocodazole and paclitaxel variations were used to focus on compounds that are capable of inhibiting a SAC induced by both microtubule destabilization as well as microtubule stabilization. When SAC inducing agents and compounds are given simultaneously inhibitors that effectively block the SAC during formation or abrogation are identified. When cells are incubated with a SAC inducing agent and the SAC interfering compound is given after a defined time, inhibitors are identified that effectively block SAC abrogation.
(§3) Cultivated cells of the human cervical tumor cell line HeLa (ATCC CCL-2) were plated at a density of 1000 cells/well in a 1536-well microtiter plate in 2 μl PAA Ham's F12 Medium supplemented with 1% (v/v) glutamine, 1% (v/v) penicillin, 1% (v/v) streptomycin and 10% (v/v) fetal calf serum. After incubation overnight at 37° C., 10 μl/well nocodazole at a final concentration of 0.1 μg/ml were added to cells. Test compounds solubilized in dimethyl sulfoxide (DMSO) were added at various concentrations (0 μM, as well as in the range of 0.005 μM-20 μM; the final concentration of the solvent DMSO was 0.5% (v/v)). Cells were incubated for 24 h at 37° C. in the presence of test compounds in combination with nocodazole. Thereafter, cells were fixed in 4% (v/v) paraformaldehyde in phosphate buffered saline (PBS) at 4° C. overnight then permeabilized in 0.1% (v/v) Triton X™ 100 in PBS at room temperature for 20 min and blocked in 0.5% (v/v) bovine serum albumin (BSA) in PBS at room temperature for 15 min. After washing with PBS, 5 μl/well antibody solution (anti-phospho-histone H3 clone 3H10, FITC; Millipore, Cat#16-222; 1:1000 dilution) was added to cells, which were incubated for 2 h at room temperature. Afterwards, cells were washed with PBS and 5 μl/well solution of HOECHST 33342 dye (5 μg/ml) was added to cells and cells were incubated 15 min at room temperature in the dark. Cells were washed twice with PBS then covered with PBS and stored at 4° C. until analysis. Images were acquired with a PERKIN ELMER OPERA™ High-Content Analysis reader. Images were analyzed with image analysis software MetaXpress™ from Molecular devices utilizing the Mitotic Index application module. In this assay both labels HOECHST 33342 and phosphorylated Histone H3 on serine 10 were measured. HOECHST 33342 labels the DNA and is used to count the cell number. The staining of phosphorylated Histone H3 on serine 10 determines the number of mitotic cells. […] Otherwise cells were arrested at G2/M phase of the cell cycle progression. The raw assay data were further analyzed by four-parametric hill equation using Genedata's Assay Analyzer and Condoseo software.

Test [2] shares this test system. Kind of test: SAC-Formation - Paclitaxel-Induced Assay. Particulars: Homo sapiens, HeLa, 24 h, HeLa cells, paclitaxel 0.05 μM, test range 0.005 μM-20 μM, read-out: IC50 [mol/l] SAC-Formation - Paclitaxel-Induced Assay.
From the text: as §1, §2
Cultivated cells of the human cervical tumor cell line HeLa (ATCC CCL-2) were plated at a density of 1000 cells/well in a 1536-well microtiter plate in 2 μl PAA
as §3, with “Ham's” for “Cultivated cells of the human cervical tumor cell line HeLa (ATCC CCL-2) were plated at a density of 1000 cells/well in a 1536-well microtiter plate in 2 μl PAA Ham's”, “paclitaxel” for “nocodazole”, “0.05 μM” for “0.1 μg/ml”, “μM -20” for “μM-20”, “paclitaxel.” for “nocodazole.”

For `COC(=O)CN(C)C(=O)c1cccc(NC(=O)c2c(C)nsc2Nc2cnc3ccccc3n2)c1` [Example 76, Methyl N-methyl-N-[3-({[3-methyl-5-(quinoxalin-2-ylamino)-1,2-thiazol-4-yl]carbonyl}amino)benzoyl]-glycinate], the IC50 with HeLa worked out at 10 µM; in test [1], 5 µM; in test [2], 18 µM.
Taken in the same sequence, the figures for `Cc1nsc(Nc2cnc3ccccc3n2)c1C(=O)Nc1cccc(C(=O)N2CCN(C(=O)N(C)C)CC2)c1` [Example 89, N,N-Dimethyl-4-[3-({[3-methyl-5-(quinoxalin-2-ylamino)-1,2-thiazol-4-yl]carbonyl}amino)benzoyl]piperazine-1-carboxamide] were 10 µM, 2.9 µM and 11 µM.
In the same order, the values of `Cc1nsc(Nc2cnc3ccccc3n2)c1C(=O)Nc1cccc(C(=O)NCCN2CCOCC2)c1` [Example 71, 3-Methyl-N-(3-{[2-(morpholin-4-yl)ethyl]carbamoyl}-phenyl)-5-(quinoxalin-2-ylamino)-1,2-thiazole-4-carboxamide] are 10 µM, 1.4 µM and 20 µM.
Taken in the same sequence, the figures for `Cc1nsc(Nc2cnc3ccccc3n2)c1C(=O)Nc1cccc(C(=O)N(C)CCCN(C)C)c1` [Example 68, N-(3-{[3-(Dimethylamino)propyl](methyl)carbamoyl}-phenyl)-3-methyl-5-(quinoxalin-2-ylamino)-1,2-thiazole-4-carboxamide] were 10 µM, 0.11 µM and 1.1 µM.
As to `Cc1nsc(Nc2cnc3ccccc3n2)c1C(=O)Nc1cccc(C(=O)NCCN2CCCC2)c1` [Example 72, 3-Methyl-N-(3-{[2-(pyrrolidin-1-yl)ethyl]carbamoyl}phenyl)-5-(quinoxalin-2-ylamino)-1,2-thiazole-4-carboxamide], the results for the IC50 (in the test with HeLa; in test [1]; in test [2]) were 10 µM, 0.052 µM and 10 µM, respectively.
Turning to `Cc1nsc(Nc2cnc3ccccc3n2)c1C(=O)Nc1cccc(C(=O)N2CCCN(C)CC2)c1` [Example 83, 3-Methyl-N-{3-[(4-methyl-1,4-diazepan-1-yl)carbonyl]-phenyl}-5-(quinoxalin-2-ylamino)-1,2-thiazole-4-carboxamide], the IC50 with HeLa worked out at 10 µM; in test [1], 0.05 µM; in test [2], 0.94 µM.
Turning to `Cc1nsc(Nc2cnc3ccccc3n2)c1C(=O)Nc1cccc(C(=O)N(C)CCc2ccncc2)c1` [Example 82, 3-Methyl-N-(3-{methyl[2-(pyridin-4-yl)ethyl]carbamoyl}-phenyl)-5-(quinoxalin-2-ylamino)-1,2-thiazole-4-carboxamide], the figures for the IC50 (in the test with HeLa; in test [1]; in test [2]) were 10 µM, 3.7 µM and 14 µM, respectively.
As to `CC(=O)NCCNC(=O)c1cccc(NC(=O)c2c(C)nsc2Nc2cnc3ccccc3n2)c1` [Example 66, N-(3-{[2-(Acetylamino)ethyl]carbamoyl}phenyl)-3-methyl-5-(quinoxalin-2-ylamino)-1,2-thiazole-4-carboxamide], the IC50 in the test on HeLa came to 10 µM; in test [1], 0.72 µM; in test [2], 20 µM.
Taken in the same sequence, the figures for `COCCN1CCN(C(=O)c2cccc(NC(=O)c3c(C)nsc3Nc3cnc4ccccc4n3)c2)CC1` [Example 91, N-(3-{[4-(2-Methoxyethyl)piperazin-1-yl]carbonyl}phenyl)-3-methyl-5-(quinoxalin-2-ylamino)-1,2-thiazole-4-carboxamide] were 10 µM, 0.042 µM and 0.23 µM.
Taken in the same sequence, the figures for `Cc1nsc(Nc2cnc3ccccc3n2)c1C(=O)Nc1cccc(C(=O)N(C)CCO)c1` [Example 59, N-{3-[(2-hydroxyethyl)(methyl)carbamoyl]phenyl}-3-methyl-5-(quinoxalin-2-ylamino)-1,2-thiazole-4-carboxamide] were 10 µM, 3.4 µM and 20 µM.
Taken in the same sequence, the figures for `Cc1nsc(Nc2cnc3ccccc3n2)c1C(=O)Nc1cccc(C(=O)NCCCN2CCOCC2)c1` [Example 95, 3-Methyl-N-(3-{[3-(morpholin-4-yl)propyl]carbamoyl}-phenyl)-5-(quinoxalin-2-ylamino)-1,2-thiazole-4-carboxamide] were 10 µM, 0.068 µM and 10 µM.
`C#CCN(C)C(=O)c1cccc(NC(=O)c2c(C)nsc2Nc2cnc3ccccc3n2)c1` [Example 62, 3-Methyl-N-{3-[methyl(prop-2-yn-1-yl)carbamoyl]phenyl}-5-(quinoxalin-2-ylamino)-1,2-thiazole-4-carboxamide]: the IC50 is 10 µM in the test on HeLa, 0.44 µM in test [1] and 1.5 µM in test [2].
